Source: patent US20260271933A1 (priority 2023, published 2026)

What was measured:
Phytophthora infestans = experiment: whole plant or invertebrate; assay type: in vivo; details: in Solanum lycopersicum, foliar, read-out: control of Phytophthora infestans
Plasmopara viticola = experiment: whole plant or invertebrate; assay type: in vivo; details: foliar
Pythium ultimum = Pythium ultimum / liquid culture (seedling damping off); assay type: cell-based; details: Globisporangium ultimum, growth inhibition determined photometrically, compared to untreated control
Description: Pythium ultimum/Liquid Culture (Seedling Damping Off)
Mycelia fragments and oospores of a newly grown liquid culture of the fungus are directly mixed into nutrient broth (PDB potato dextrose broth). After placing a (DMSO) solution of test compound into a microtiter plate (96-well format), the nutrient broth containing the fungal mycelia/spore mixture is added.
The test plates are incubated at 24° C. and the inhibition of growth is determined photometrically 2-3 days after application.

COC(=O)Nc1ccc(-c2cnc3ccc(C(=O)N4CCCc5cc(F)ccc54)cn23)cn1 [Compound 66, methyl N-[5-[6-(6-fluoro-3,4-dihydro-2H-quinoline-1-carbonyl)imidazo[1,2-a]pyridin-3-yl]-2-pyridyl]carbamate]
≥ 80%: pest or weed control at 200 ppm (Phytophthora infestans) | pest or weed control at 200 ppm (Plasmopara viticola) | inhibition of growth at 20 ppm (Pythium ultimum)

COC(=O)Nc1ccc(-c2cnc3ccc(C(=O)N4CCN(C5CC5)c5cc(F)ccc54)cn23)cn1 [Compound 51, methyl N-[5-[6-(4-cyclopropyl-6-fluoro-2,3-dihydroquinoxaline-1-carbonyl)imidazo[1,2-a]pyridin-3-yl]-2-pyridyl]carbamate]
≥ 80%: pest or weed control at 200 ppm (Phytophthora infestans) | pest or weed control at 200 ppm (Plasmopara viticola) | inhibition of growth at 20 ppm (Pythium ultimum)

COC(=O)Nc1ccc(-c2cnc3ccc(C(=O)N4CCN(C)c5cc(F)ccc54)cn23)cn1 [Compound 3, methyl N-[5-[6-(6-fluoro-4-methyl-2,3-dihydroquinoxaline-1-carbonyl)imidazo[1,2-a]pyridin-3-yl]-2-pyridyl]carbamate]
≥ 80%: pest or weed control at 200 ppm (Phytophthora infestans) | pest or weed control at 200 ppm (Plasmopara viticola) | inhibition of growth at 20 ppm (Pythium ultimum)

COC(=O)Nc1ccc(-c2cnc3ccc(C(=O)N4CCCc5c4ccc(F)c5F)cn23)cn1 [Compound 21, methyl N-[5-[6-(5,6-difluoro-3,4-dihydro-2H-quinoline-1-carbonyl)imidazo[1,2-a]pyridin-3-yl]-2-pyridyl]carbamate]
≥ 80%: pest or weed control at 200 ppm (Phytophthora infestans) | pest or weed control at 200 ppm (Plasmopara viticola) | inhibition of growth at 20 ppm (Pythium ultimum)

COC(=O)Nc1ccc(-c2cnc3ccc(C(=O)N4CCCc5cc(F)c(OC)cc54)cn23)cn1 [Compound 64, methyl N-[5-[6-(6-fluoro-7-methoxy-3,4-dihydro-2H-quinoline-1-carbonyl)imidazo[1,2-a]pyridin-3-yl]-2-pyridyl]carbamate]
≥ 80%: pest or weed control at 200 ppm (Phytophthora infestans) | pest or weed control at 200 ppm (Plasmopara viticola) | inhibition of growth at 20 ppm (Pythium ultimum)

COC(=O)Nc1ccc(-c2cnc3c(C)cc(C(=O)N4CCN(C)c5cc(F)ccc54)cn23)cn1 [Compound 2, methyl N-[5-[6-(6-fluoro-4-methyl-2,3-dihydroquinoxaline-1-carbonyl)-8-methyl-imidazo[1,2-a]pyridin-3-yl]-2-pyridyl]carbamate]
≥ 80%: pest or weed control at 200 ppm (Phytophthora infestans) | pest or weed control at 200 ppm (Plasmopara viticola) | inhibition of growth at 20 ppm (Pythium ultimum)

COC(=O)Nc1ccc(-c2cnc3ccc(C(=O)N4CC(C(=O)OC)Cc5ccccc54)cn23)cn1 (stereo not drawn) [Compound 11, methyl 1-[3-[6-(methoxycarbonylamino)-3-pyridyl]imidazo[1,2-a]pyridine-6-carbonyl]-3,4-dihydro-2H-quinoline-3-carboxylate]
≥ 80%: pest or weed control at 200 ppm (Phytophthora infestans) | pest or weed control at 200 ppm (Plasmopara viticola) | inhibition of growth at 20 ppm (Pythium ultimum)

CCOC(=O)C1Cc2cc(F)ccc2N(C(=O)c2ccc3ncc(-c4ccc(NC(=O)OC)nc4)n3c2)C1 (stereo not drawn) [Compound 35, ethyl 6-fluoro-1-[3-[6-(methoxycarbonylamino)-3-pyridyl]imidazo[1,2-a]pyridine-6-carbonyl]-3,4-dihydro-2H-quinoline-3-carboxylate]
≥ 80%: pest or weed control at 200 ppm (Phytophthora infestans) | pest or weed control at 200 ppm (Plasmopara viticola) | inhibition of growth at 20 ppm (Pythium ultimum)

COC(=O)Nc1ccc(-c2cnc3ccc(C(=O)N(C)c4ccc(F)cc4OC)cn23)cn1 [Compound 30, methyl N-[5-[6-[(4-fluoro-2-methoxy-phenyl)-methyl-carbamoyl]imidazo[1,2-a]pyridin-3-yl]-2-pyridyl]carbamate]
≥ 80%: pest or weed control at 200 ppm (Phytophthora infestans) | pest or weed control at 200 ppm (Plasmopara viticola) | inhibition of growth at 20 ppm (Pythium ultimum)
